# Source: ChEMBL document CHEMBL1201862, “PubChem BioAssay data set” (2004)
#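 Briefly, cells in 96-well plates were exposed to five compound concentrations for 48 h, and endpoints were estimated by linear interpolation. Here, GI50 denotes the concentration required for 50% inhibition of growth.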 Activity calls are given as the source filed them. Rule as the data show it: active = GI50 up to about 1.1 µM and inactive = higher.
# What was measured:
# Assay in all cases: growth of human tumour cells (NCI), 48 h
# [1] = test system: HT-29
# [2] = test system: SNB-19
# [3] = test system: LOX IMVI
# [4] = test system: 786-0
# [5] = test system: SK-MEL-2
# [6] = test system: NCI-H460
# [7] = test system: SK-OV-3
# [8] = test system: NCI-H23
# [9] = test system: OVCAR-3
# [10] = test system: CAKI-1
# [11] = test system: OVCAR-8
# [12] = test system: MDA-MB-231
# [13] = test system: SF-539
# [14] = test system: Malme-3M
# [15] = test system: KM12
# [16] = test system: SNB-75
# [17] = test system: SF-295
# [18] = test system: M14
# [19] = test system: CCRF-CEM
SMILES,GI50 [1],GI50 [2],GI50 [3],GI50 [4],GI50 [5],GI50 [6],GI50 [7],GI50 [8],GI50 [9],GI50 [10],GI50 [11],GI50 [12],GI50 [13],GI50 [14],GI50 [15],GI50 [16],GI50 [17],GI50 [18],GI50 [19]
CC(NC(=O)c1ccc(Cl)c(Cl)c1)c1ccc(-c2ccccc2)cc1 (centres undefined),71.6 µM (inactive),21.1 µM (inactive),38.3 µM (inactive),22.5 µM (inactive),> 100 µM (inactive),47.4 µM (inactive),27.5 µM (inactive),48.3 µM (inactive),20.8 µM (inactive),29.9 µM (inactive),26.3 µM (inactive),42.7 µM (inactive),19.3 µM (inactive),21.5 µM (inactive),57.7 µM (inactive),15.8 µM (inactive),29.9 µM (inactive),64.7 µM (inactive),
Clc1ccc(Cc2nc3cc4ccccc4cc3[nH]2)cc1Cl,10.2 µM (inactive),18.7 µM (inactive),14.5 µM (inactive),27 µM (inactive),17.1 µM (inactive),6.97 µM (inactive),,27.3 µM (inactive),22.8 µM (inactive),18.3 µM (inactive),20.1 µM (inactive),16.6 µM (inactive),15.5 µM (inactive),16 µM (inactive),16.4 µM (inactive),17.3 µM (inactive),,26.2 µM (inactive),37.9 µM (inactive)
CCOC(=O)c1nc2ccccc2nc1Oc1cc(OC)c(OC)c(OC)c1,> 100 µM (inactive),> 100 µM (inactive),> 100 µM (inactive),38.1 µM (inactive),90.2 µM (inactive),> 100 µM (inactive),,87.3 µM (inactive),> 100 µM (inactive),84.5 µM (inactive),> 100 µM (inactive),35 µM (inactive),39.4 µM (inactive),> 100 µM (inactive),> 100 µM (inactive),44.3 µM (inactive),45.2 µM (inactive),> 100 µM (inactive),> 100 µM (inactive)
CCCNC(=O)CCC(C)[C@H]1CCC2C3C(C[C@H](OC(C)=O)[C@@]21C)[C@@]1(C)CCC2(C[C@H]1C[C@H]3OC(C)=O)OOC1(CCC(C)CC1)OO2 (some centres undefined),36.9 µM (inactive),80.2 µM (inactive),,16.2 µM (inactive),19.5 µM (inactive),23.5 µM (inactive),60.5 µM (inactive),4.88 µM (inactive),4.78 µM (inactive),2.28 µM (inactive),19.5 µM (inactive),29.1 µM (inactive),16.7 µM (inactive),18.6 µM (inactive),5.52 µM (inactive),23 µM (inactive),26.7 µM (inactive),26.4 µM (inactive),0.0376 µM (active)
COc1ccc(C2SCC(=O)N2c2ccc(-n3c(-c4ccccc4)nc4ccccc4c3=O)cc2)cc1 (centres undefined),> 100 µM (inactive),> 100 µM (inactive),> 100 µM (inactive),> 100 µM (inactive),6.95 µM (inactive),> 100 µM (inactive),73.3 µM (inactive),> 100 µM (inactive),> 100 µM (inactive),> 100 µM (inactive),> 100 µM (inactive),> 100 µM (inactive),> 100 µM (inactive),,90.8 µM (inactive),15.8 µM (inactive),> 100 µM (inactive),> 100 µM (inactive),> 100 µM (inactive)
CCOP(=O)(OCC)/C(C#N)=C/c1c[nH]c2ccccc12,> 100 µM (inactive),> 100 µM (inactive),> 100 µM (inactive),> 100 µM (inactive),> 100 µM (inactive),> 100 µM (inactive),> 100 µM (inactive),> 100 µM (inactive),62.8 µM (inactive),> 100 µM (inactive),> 100 µM (inactive),> 100 µM (inactive),> 100 µM (inactive),> 100 µM (inactive),> 100 µM (inactive),> 100 µM (inactive),> 100 µM (inactive),> 100 µM (inactive),
C1=Nc2sc3c(c2C2=NCCN12)CCCC3,18.1 µM (inactive),18.4 µM (inactive),14.7 µM (inactive),17.4 µM (inactive),0.465 µM (active),17.5 µM (inactive),,15.6 µM (inactive),17.6 µM (inactive),17.4 µM (inactive),17.1 µM (inactive),14.2 µM (inactive),,16.9 µM (inactive),17.2 µM (inactive),18.9 µM (inactive),21.5 µM (inactive),,
O=[N+]([O-])c1ccc2nc3ccc([N+](=O)[O-])cn3c2c1,83 µM (inactive),36.1 µM (inactive),85.1 µM (inactive),34.4 µM (inactive),> 100 µM (inactive),43.3 µM (inactive),> 100 µM (inactive),> 100 µM (inactive),,33 µM (inactive),39 µM (inactive),33 µM (inactive),52.6 µM (inactive),92.5 µM (inactive),> 100 µM (inactive),43.1 µM (inactive),> 100 µM (inactive),> 100 µM (inactive),> 100 µM (inactive)
COc1cccc(/N=N/N2CCCC2)c1,,> 100 µM (inactive),40.2 µM (inactive),> 100 µM (inactive),> 100 µM (inactive),> 100 µM (inactive),> 100 µM (inactive),> 100 µM (inactive),> 100 µM (inactive),> 100 µM (inactive),> 100 µM (inactive),> 100 µM (inactive),> 100 µM (inactive),,9.46 µM (inactive),> 100 µM (inactive),26.5 µM (inactive),> 100 µM (inactive),> 100 µM (inactive)
CC1=C/C(=N\N(C)C)C(C(O)(C(F)(F)F)C(F)(F)F)C(C)(C)C1 (centres undefined),> 100 µM (inactive),> 100 µM (inactive),> 100 µM (inactive),> 100 µM (inactive),> 100 µM (inactive),> 100 µM (inactive),,69.7 µM (inactive),26.4 µM (inactive),> 100 µM (inactive),> 100 µM (inactive),> 100 µM (inactive),> 100 µM (inactive),97.1 µM (inactive),> 100 µM (inactive),27.1 µM (inactive),> 100 µM (inactive),> 100 µM (inactive),> 100 µM (inactive)
CCNC(=S)Nc1c(C#N)c2n(c1C(=O)OCC)CCCCC2,> 100 µM (inactive),> 100 µM (inactive),> 100 µM (inactive),76.4 µM (inactive),> 100 µM (inactive),> 100 µM (inactive),> 100 µM (inactive),69 µM (inactive),,> 100 µM (inactive),> 100 µM (inactive),> 100 µM (inactive),64.7 µM (inactive),,> 100 µM (inactive),> 100 µM (inactive),> 100 µM (inactive),> 100 µM (inactive),> 100 µM (inactive)
CCOC(=O)c1nc2ccccc2nc1Nc1ccc(OC)c(OC)c1,> 100 µM (inactive),> 100 µM (inactive),,77.1 µM (inactive),> 100 µM (inactive),> 100 µM (inactive),> 100 µM (inactive),> 100 µM (inactive),> 100 µM (inactive),> 100 µM (inactive),,> 100 µM (inactive),> 100 µM (inactive),> 100 µM (inactive),> 100 µM (inactive),21.9 µM (inactive),> 100 µM (inactive),> 100 µM (inactive),> 100 µM (inactive)
O=C(c1ccccc1)C1C(C(=O)c2ccccc2)N1Cc1ccccc1 (centres undefined),36.5 µM (inactive),37 µM (inactive),31.2 µM (inactive),34.8 µM (inactive),17.5 µM (inactive),29.2 µM (inactive),27.5 µM (inactive),37.8 µM (inactive),27.8 µM (inactive),75.3 µM (inactive),32.4 µM (inactive),26.1 µM (inactive),,34.4 µM (inactive),27.8 µM (inactive),13.9 µM (inactive),39.7 µM (inactive),28.6 µM (inactive),36.6 µM (inactive)
OC1(c2ccccc2)c2ccccc2N=C2NCCN21 (centres undefined),74.6 µM (inactive),> 100 µM (inactive),23.4 µM (inactive),72.9 µM (inactive),> 100 µM (inactive),56.4 µM (inactive),> 100 µM (inactive),60 µM (inactive),> 100 µM (inactive),45.4 µM (inactive),> 100 µM (inactive),> 100 µM (inactive),> 100 µM (inactive),,> 100 µM (inactive),91.4 µM (inactive),57.5 µM (inactive),50.6 µM (inactive),
COc1ccc(C2CCc3nc4nc(N)nc(N)c4cc3C2)cc1 (centres undefined),29.2 µM (inactive),6.65 µM (inactive),12.1 µM (inactive),3.13 µM (inactive),18.9 µM (inactive),40.6 µM (inactive),10.1 µM (inactive),,17.3 µM (inactive),54.1 µM (inactive),10.2 µM (inactive),14.8 µM (inactive),12.4 µM (inactive),24.5 µM (inactive),30.8 µM (inactive),1.67 µM (inactive),16.8 µM (inactive),86.9 µM (inactive),
O=S(=O)(O)c1ccc(-c2nnc(-c3ccccn3)nc2-c2ccc(S(=O)(=O)O)o2)o1,> 100 µM (inactive),> 100 µM (inactive),> 100 µM (inactive),> 100 µM (inactive),> 100 µM (inactive),> 100 µM (inactive),> 100 µM (inactive),> 100 µM (inactive),> 100 µM (inactive),> 100 µM (inactive),> 100 µM (inactive),> 100 µM (inactive),> 100 µM (inactive),> 100 µM (inactive),> 100 µM (inactive),> 100 µM (inactive),> 100 µM (inactive),> 100 µM (inactive),
